This note sets out measurements from ChEMBL document CHEMBL1157993, “Structure-antimutagenic activity relationship study of plicatin B” (J Nat Prod, 1999).

Data set [1] deals with Salmonella typhimurium. The data set can be described thus: Antimutagenic activity in Salmonella Typhimurium TA100 assessed as inhibition of ethyl methanesulfonate-induced mutation at 3.9 uM treated for 30 mins and measured after 2 days by modified Ames test. In kind it is functional, Salmonella enterica subsp. enterica serovar Typhimurium. Conditions: Salmonella enterica. (In general: The Ames test detects mutagens through reverse mutation in bacteria.)

The subject of data set [2] is Salmonella typhimurium. The data set can be described thus: Antimutagenic activity in Salmonella Typhimurium TA100 assessed as inhibition of ethyl methanesulfonate-induced mutation at 31.3 uM treated for 30 mins and measured after 2 days by modified Ames test. The following applies: Salmonella enterica. In kind it is functional, Salmonella enterica subsp. enterica serovar Typhimurium.

Data set [3] has as its system Salmonella typhimurium. The data set can be described thus: Antimutagenic activity in Salmonella Typhimurium TA100 assessed as inhibition of ethyl methanesulfonate-induced mutation at 7.8 uM treated for 30 mins and measured after 2 days by modified Ames test. The class given is functional, Salmonella enterica subsp. enterica serovar Typhimurium. Conditions: Salmonella enterica.

The nature of data set [4]: Cytotoxicity against Salmonella Typhimurium TA100 assessed as maximun non-toxic concentrations after 15 hrs […]. In kind it is organism-based. Conditions: salmonella enterica subsp. enterica serovar typhimurium, Salmonella Typhimurium TA100 cells; read-out: Activity.
The test system of data set [5] is Salmonella typhimurium. The experiment in a line: Antimutagenic activity in Salmonella Typhimurium TA100 assessed as inhibition of ethyl methanesulfonate-induced mutation at 3.9 to 125 uM treated for 30 mins and measured after 2 days by modified Ames test. In kind it is functional, Salmonella enterica subsp. enterica serovar Typhimurium.
In data set [6] the test system is Salmonella typhimurium. The data set can be described thus: Antimutagenic activity in Salmonella Typhimurium TA100 assessed as inhibition of ethyl methanesulfonate-induced mutation at 25 ug/mL treated for 30 mins and measured after 2 days by modified Ames test. Conditions: Salmonella enterica. In kind it is functional, Salmonella enterica subsp. enterica serovar Typhimurium.

For data set [7], the system named is Salmonella typhimurium. The data set can be described thus: Antimutagenic activity in Salmonella Typhimurium TA100 assessed as inhibition of ethyl methanesulfonate-induced mutation at 125 uM treated for 30 mins and measured after 2 days by modified Ames test. The class given is functional, Salmonella enterica subsp. enterica serovar Typhimurium. The following applies: Salmonella enterica.

Data set [8] relates to Salmonella typhimurium. The data set can be described thus: Antimutagenic activity in Salmonella Typhimurium TA100 assessed as inhibition of ethyl methanesulfonate-induced mutation at 15.6 ug/mL treated for 30 mins and measured after 2 days by modified Ames test. In kind it is functional, Salmonella enterica subsp. enterica serovar Typhimurium. The following applies: Salmonella enterica.

Data set [9] relates to Salmonella typhimurium. The experiment in a line: Antimutagenic activity in Salmonella Typhimurium TA100 assessed as inhibition of ethyl methanesulfonate-induced mutation at 82.5 uM treated for 30 mins and measured after 2 days by modified Ames test. In kind it is functional, Salmonella enterica subsp. enterica serovar Typhimurium. The following applies: Salmonella enterica.

As usually defined, the inhibition is how much of the control response was suppressed. `CC(C)=CCc1cc(/C=C/CO)ccc1O`: the inhibition at 3.9 µM with Salmonella typhimurium [1] came to 20.2%. Also, the inhibition at 31.3 µM in the data set with Salmonella typhimurium [2] was 36.8%. The inhibition at 7.8 µM in the data set with Salmonella typhimurium [3] worked out at 27.1%.
Consider `COC(=O)CCc1ccc(O)c(CC=C(C)C)c1`, for which the inhibition at 3.9 µM in the data set with Salmonella typhimurium [1] is 25.2%. In addition, the inhibition at 31.3 µM in the data set with Salmonella typhimurium [2] came out at 46.8%. Moreover, in the data set with Salmonella typhimurium [3], the inhibition at 7.8 µM came to 38.5%. In addition, the MNTC at 15 h in [4] is 31.3 µM.
In the case of `COC(=O)CCc1ccc(O)cc1` [4-HYDROXYHYDROCINNAMIC ACID METHYL ESTER], in the data set on Salmonella typhimurium [5], the “inhibition (INH)” value stood at 0%.
On to `O=C/C=C/c1ccccc1` [CINNAMALDEHYDE], for which the inhibition at 25 µg/mL in the data set with Salmonella typhimurium [6] was found to be 30%. Besides, in data set [4], the MNTC at 15 h was 25 µg/mL.
Consider `O=C(O)/C=C/c1ccc(O)cc1` [COUMARIC ACID], for which, in the data set on Salmonella typhimurium [1], the inhibition at 3.9 µM was determined as 11.2%. Also, the inhibition at 7.8 µM with Salmonella typhimurium [3] amounted to 13.6%. The inhibition at 125 µM in the data set with Salmonella typhimurium [7] amounted to 49.8%.
For the molecule `CC(C)=CCc1cc(/C=C/C(=O)O)ccc1O` [DRUPANIN], the inhibition at 3.9 µM with Salmonella typhimurium [1] is 0.3%. For the same molecule, in the data set with Salmonella typhimurium [8], the inhibition at 15.6 µg/mL came out at 12%. Also, in the data set with Salmonella typhimurium [3], the inhibition at 7.8 µM stood at 0.6%.
For `COC(=O)/C=C/c1ccc(O)cc1` [METHYL P-HYDROXYCINNAMATE], in the data set with Salmonella typhimurium [1], the inhibition at 3.9 µM is 0%. Also, in the data set on Salmonella typhimurium [9], the inhibition at 82.5 µM is 7.6%. Also, in the data set on Salmonella typhimurium [3], the inhibition at 7.8 µM was found to be 0.9%.
On to `COC(=O)/C=C/c1ccc(OC)c(CC=C(C)C)c1` [PALICATIN B METHYL ETHER], for which the inhibition at 3.9 µM with Salmonella typhimurium [1] came to 13.2%. In the data set on Salmonella typhimurium [3], the inhibition at 7.8 µM was 21.5%.
Consider `COC(=O)/C=C/c1ccc(O)c(CC=C(C)C)c1` [PLICATIN B], for which, in the data set with Salmonella typhimurium [1], the inhibition at 3.9 µM amounted to 25.4%. The inhibition at 7.8 µM in the data set on Salmonella typhimurium [3] turned out to be 30.2%.
